Read-outs that look alike come from different tables or passages of the source. Peptide text beside a SMILES is read from it.
How the values were obtained:
[1] = biological target: T1, human APJ receptor (hAPJ) (Homo sapiens, UniProt P35414); experiment: HTRF cAMP assay: inhibition of NKH477-stimulated cAMP in HEK cells stably expressing hAPJ; type: cell-based; settings: for Emax: HEK293, read-out: % IA, bound stated; for % IA (cAMP inhibition, hAPJ HEK): intrinsic activity; for Ranking: composite class of EC50 (hAPJ), % IA and % histamine or formal (+) charge; for inhibition of NKH477-stimulated increase in cAMP, dose dependent: concentration response curves, FIGS. 1 and 2, HEK cells stably expressing APJ
T1 construct: expressed in transfected cells
T1 sequence (P35414 1-380): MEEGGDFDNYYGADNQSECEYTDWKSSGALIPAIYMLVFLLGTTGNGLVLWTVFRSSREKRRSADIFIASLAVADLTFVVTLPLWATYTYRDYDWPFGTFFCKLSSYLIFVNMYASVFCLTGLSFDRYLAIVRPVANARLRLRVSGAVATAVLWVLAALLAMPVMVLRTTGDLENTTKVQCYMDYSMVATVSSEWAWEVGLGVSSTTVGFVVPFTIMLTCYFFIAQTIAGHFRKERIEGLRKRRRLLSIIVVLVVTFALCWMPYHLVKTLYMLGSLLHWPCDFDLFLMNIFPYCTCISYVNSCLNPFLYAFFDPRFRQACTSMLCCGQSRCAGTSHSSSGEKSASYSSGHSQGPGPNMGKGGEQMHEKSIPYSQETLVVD
Procedure, shortened: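 HEK cells stably expressing hAPJ, induced with 1 nG/mL doxycycline and seeded overnight at 40 k/well. cAMP read by HTRF competitive immunoassay using cryptate-labeled anti-cAMP antibody and d2-labeled cAMP.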

[2] = tested on: rat peritoneal cells; experiment: Ex vivo histamine release assay in rat peritoneal cells (vs. Compound 48/80); type: cell-based
Description: More desirable pharmacological tolerability can include a decrease in an undesirable side effect (e.g., histamine release, an indicator of mast cell degranulation) without a significant loss in activity of the compound.
Screening of the variant G protein receptor compounds against a control compound for histamine release can be done following standard assays. The standard assay can include comparison to a control compound known to elicit a histamine response (e.g., 48/80 having CAS No. 94724-12-6). Such an assay using rat peritoneal cells is described herein for the APJ compounds.
Test compounds were assayed in the ex vivo histamine release assay using a 3-point dose response. Concentrations of total histamine contained in the cells is used to correct for variability in the numbers of mast cells in the lavage per well.
Resident peritoneal cells were harvested from naïve Sprague Dawley rats (male 200-300 gr, Charles River). Rats were euthanized by CO2 asphyxiation and a skin incision was made along the middle-line of the abdomen. Thirty milliliters of HBSS (HyClone, cat#SH 30268.01) containing 20 mM HEPES and 0.2% BSA (heretofore Assay Buffer) were injected intraperitoneally using a 30 mL syringe with the attached 18 gauge needle. The abdomen was gently lavaged for 1-2 min and 7-10 milliliters of the peritoneal lavage were carefully aspirated. Cell count in the peritoneal lavage was determined using Cellometer Auto T4 (Nexcelom Bioscience). The peritoneal cell count was adjusted to […] cells/mL in Assay Buffer. Rat peritoneal cells were kept at room temperature before and during the assay.
For the 10-point assay, 3-fold serial dilutions were prepared for each test compound in 100% DMSO in 96-well plates (Greiner Bio One, Ref#651261)—from 100 μM down to […]. For the 3-point assay, 10-fold serial dilutions were prepared in 100% DMSO at 100 μM, 10 μM and 1 μM concentrations. From this plate, 5 μL of compound were transferred to a new plate containing 45 μL Assay Buffer to generate a compound plate with 10× final concentrations in 10% DMSO with Assay Buffer. In the final plates, column 11 contained 1% DMSO for the low-histamine-releasing control.
Suspensions of the rat peritoneal cells (90 μL of 2.75×10^5 cells/mL; →25,000 cells per well) were introduced into each well of a new 96-well microtiter plate (Greiner Bio One, Ref#651261) and 10 μL aliquots of the serially diluted compounds were transferred to the cells in each well. The microtiter plate was incubated for 30 min at room temperature. Following incubation cells were spun down (500 rpm, 7 min) and supernatants were collected for further analysis. Supernatants were diluted 6 times with the assay buffer (15 μL to 75 μL, for 90 μL total) and released histamine content was determined using HTRF® Histamine assay kit (CisBio, cat#62HTMPEB). To measure the total histamine in each well, cells were lysed by addition of 15 μL 5% TritonX-100 to each well followed by incubation for 15 minutes. The plates were then spun at 3000 rpm for 5 minutes, and 10 μL of supernatant were diluted 9-fold in assay buffer (10 μL to 80 μL for 90 μL total) to make the “total” histamine plate. Histamine content was measured as described above for the “released” histamine values.
The standard positive control was Compound 48/80 (Enzo Life Sciences), a oligomeric polymer mixture produced by the condensation of N-methyl-p-methoxyphenethylamine with formaldehyde. The trimer is the most abundant in the mixture Compound 48/80 is used to promote mast cell degranulation and activates G proteins by a mechanism analogous to that of mastoparan. […] See references: T. Higashijima et al., J. Biol., Chem., 265 14176 (1990); M. Mousli et al., FEBS Lett., 259 260 (1990); K. Gietzen et al., Biochim. Biophys. Acta, 736 109 (1983); K. Gietzen, Biochem. J., 1983 216 611 and C. Bronner et al., Biochim. Biophys. Acta, 920 301(1987).

[3] = HTRF cAMP Assay, per data of Table 6
[4] = HTRF cAMP Assay, per data of Table 6, read-out: EC50 (hAPJ), inhibition of cAMP production, bound stated
[5] = Table 6, hAPJ HEK cells, NKH477-stimulated cAMP, read-out: EC50 (cAMP inhibition, hAPJ HEK)
[6] = EC50 (cAMP inhibition, hAPJ HEK), Table 6, hAPJ HEK cells, NKH477-stimulated cAMP
[7] = histamine release from rat peritoneal cells relative to Compound 48/80

| Emax [1, 3] [%] | EC50 [1, 4] [µM] | EC50 [1, 5] [µM] | % IA (cAMP inhibition, hAPJ HEK) ([1]; Table 6, hAPJ HEK cells) [%] | inhibition of NKH477-stimulated increase in cAMP, dose dependent [1] | Histamine (% vs. 48/80) [2] [%] | Compound | Ranking [1] | EC50 [1, 6] [µM] | EC50 ([1]; EC50 (hAPJ), inhibition of cAMP production, bound stated, HTRF cAMP Assay, per data of Table 6) [µM] | Histamine (% vs. 48/80) [2, 7] [%] |
| --- | --- | --- | --- | --- | --- | --- | --- | --- | --- | --- |
| ≥ 80 | ≤ 0.025 | 0.012 | 108 | inhibited | 30 | CCCCCCCCCCCCCCCC(=O)N[C@H](C(=O)N[C@H](C(=O)N[C@@H](Cc1ccccc1)C(=O)N[C@@H](CCC(N)=O)C(=O)N[C@@H](CO)C(=O)N[C@@H](CO)C(=O)N[C@@H](CCC(=O)O)C(=O)N[C@H](CCCCN)C(=O)N[C@@H](CCCNC(=N)N)C(=O)N[C@@H](CCCNC(=N)N)C(=O)N[C@@H](CO)C(=O)N[C@@H](C)C(=O)N[C@@H](CC(=O)O)C(=O)N[C@@H](Cc1ccccc1)C(=O)N[C@H](C(N)=O)[C@@H](C)CC)C(C)C)[C@@H](C)O [Compound 15, Pal-TVFQSSEkRRSADFI-amide] (HELM PEPTIDE1{[CCCCCCCCCCCCCCCC(=O)[*:2]].T.V.F.Q.S.S.E.[dK].R.R.S.A.D.F.I.[am]}$$$$V2.0) | ***** (EC50≦25 nM (hAPJ), % IA≧80% and either % histamine≦35% or formal (+) charge≦1) | – | – | – |
| – | – | 0.044 | 63 | – | 67 | CCCCCCCCCCCCCCCC(=O)N[C@H](C(=O)N[C@H](C(=O)N[C@@H](Cc1ccccc1)C(=O)N[C@@H](CCCNC(=N)N)C(=O)N[C@@H](CO)C(=O)N[C@@H](CO)C(=O)N1CCC[C@H]1C(=O)N[C@@H](CCC(=O)O)C(=O)N[C@H](CCCCN)C(=O)N[C@@H](CCCNC(=N)N)C(=O)N[C@@H](CCCNC(=N)N)C(=O)N[C@@H](CO)C(=O)N1CCC[C@H]1C(=O)N[C@@H](C)C(=O)N[C@@H](CC(=O)O)C(=O)N[C@H](C(=O)N[C@@H](Cc1ccccc1)C(N)=O)[C@@H](C)CC)C(C)C)[C@@H](C)O [Compound 23] (HELM PEPTIDE1{[CCCCCCCCCCCCCCCC(=O)[*:2]].T.V.F.R.S.S.P.E.[dK].R.R.S.P.A.D.I.F.[am]}$$$$V2.0) | ** (EC50 25-50 nM (hAPJ), % IA 50-79% and either % histamine>35% or formal (+) charge>1) | – | – | – |
| ≥ 80 | ≤ 0.025 | 0.013 | 88 | inhibited | 54 | CCCCCCCCCCCCCCCC(=O)N[C@H](C(=O)N[C@H](C(=O)N[C@@H](Cc1ccccc1)C(=O)N[C@@H](CCCNC(=N)N)C(=O)N[C@@H](CO)C(=O)N[C@@H](CO)C(=O)N[C@@H](CCC(=O)O)C(=O)N[C@H](CCCCN)C(=O)N[C@@H](CCCNC(=N)N)C(=O)N[C@@H](CCCNC(=N)N)C(=O)N1CCC[C@H]1C(=O)N[C@@H](CO)C(=O)N[C@@H](C)C(=O)N[C@@H](CC(=O)O)C(=O)N[C@H](C(=O)N[C@@H](Cc1ccccc1)C(=O)N1CCC[C@H]1C(N)=O)[C@@H](C)CC)C(C)C)[C@@H](C)O [Compound 24] (HELM PEPTIDE1{[CCCCCCCCCCCCCCCC(=O)[*:2]].T.V.F.R.S.S.E.[dK].R.R.P.S.A.D.I.F.P.[am]}$$$$V2.0) | **** (EC50≦25 nM (hAPJ), % IA≧80% and either % histamine>35% or formal (+) charge>1) | – | – | – |
| – | – | 0.017 | 47 | – | 60 | CCCCCCCCCCCCCCCC(=O)N[C@H](C(=O)N[C@H](C(=O)N[C@@H](Cc1ccccc1)C(=O)N[C@@H](CCCNC(=N)N)C(=O)N[C@@H](CO)C(=O)N1CCC[C@H]1C(=O)N[C@@H](CO)C(=O)N[C@@H](CCC(=O)O)C(=O)N[C@H](CCCCN)C(=O)N[C@@H](CCCNC(=N)N)C(=O)N[C@@H](CCCNC(=N)N)C(=O)N1CCC[C@H]1C(=O)N[C@@H](CO)C(=O)N[C@@H](C)C(=O)N[C@@H](CC(=O)O)C(=O)N[C@H](C(=O)N[C@@H](Cc1ccccc1)C(N)=O)[C@@H](C)CC)C(C)C)[C@@H](C)O [Compound 22] (HELM PEPTIDE1{[CCCCCCCCCCCCCCCC(=O)[*:2]].T.V.F.R.S.P.S.E.[dK].R.R.P.S.A.D.I.F.[am]}$$$$V2.0) | * (EC50≦50 nM (hAPJ), % IA<50%) | – | – | – |

| Compound | Emax [1, 3] [%] | EC50 [1, 4] [µM] | EC50 [1, 5] [µM] | % IA (cAMP inhibition, hAPJ HEK) ([1]; Table 6, hAPJ HEK cells) [%] | inhibition of NKH477-stimulated increase in cAMP, dose dependent [1] | Histamine (% vs. 48/80) [2] [%] | Ranking [1] | EC50 [1, 6] [µM] | EC50 ([1]; EC50 (hAPJ), inhibition of cAMP production, bound stated, HTRF cAMP Assay, per data of Table 6) [µM] | Histamine (% vs. 48/80) [2, 7] [%] |
| --- | --- | --- | --- | --- | --- | --- | --- | --- | --- | --- |
| CCCCCCCCCCCCCCCC(=O)N[C@H](C(=O)N[C@H](C(=O)N[C@@H](Cc1ccccc1)C(=O)N[C@@H](CCCNC(=N)N)C(=O)N[C@@H](CO)C(=O)N[C@@H](CO)C(=O)N[C@@H](CCC(=O)O)C(=O)N[C@H](CCCN)C(=O)N[C@@H](CCCNC(=N)N)C(=O)N[C@@H](CCCNC(=N)N)C(=O)N[C@@H](CO)C(=O)N[C@@H](C)C(=O)N[C@@H](CC(=O)O)C(=O)N[C@H](C(=O)N[C@@H](Cc1ccccc1)C(=O)N[C@H](C(N)=O)[C@@H](C)CC)[C@@H](C)CC)C(C)C)[C@@H](C)O [Compound 8] (HELM PEPTIDE1{[CCCCCCCCCCCCCCCC(=O)[*:2]].T.V.F.R.S.S.E.[NCCC[C@@H](N[*:1])C(=O)[*:2]].R.R.S.A.D.I.F.I.[am]}$$$$V2.0) | ≥ 80 | – | – | 99 | inhibited | – | ***** (EC50≦25 nM (hAPJ), % IA≧80% and either % histamine≦35% or formal (+) charge≦1) | 0.014 | ≤ 0.025 | 9 |
| CCCCCCCCCCCCCCCC(=O)N[C@H](C(=O)N1CCC[C@H]1C(=O)N[C@H](C(=O)N[C@@H](Cc1ccccc1)C(=O)N[C@@H](CCCNC(=N)N)C(=O)N[C@@H](CO)C(=O)N[C@@H](CO)C(=O)N1CCC[C@H]1C(=O)N[C@@H](CCC(=O)O)C(=O)N[C@H](CCCCN)C(=O)N[C@@H](CCCNC(=N)N)C(=O)N[C@@H](CCCNC(=N)N)C(=O)N[C@@H](CO)C(=O)N[C@@H](C)C(=O)N[C@@H](CC(=O)O)C(=O)N[C@H](C(=O)N[C@@H](Cc1ccccc1)C(=O)N[C@H](C(N)=O)[C@@H](C)CC)[C@@H](C)CC)C(C)C)[C@@H](C)O [Compound 2] (HELM PEPTIDE1{[CCCCCCCCCCCCCCCC(=O)[*:2]].T.P.V.F.R.S.S.P.E.[dK].R.R.S.A.D.I.F.I.[am]}$$$$V2.0) | – | – | – | 60 | – | – | ** (EC50 25-50 nM (hAPJ), % IA 50-79% and either % histamine>35% or formal (+) charge>1) | 0.004 | – | 49 |
